According to patent publication US20260219194A1, “BIOSENSOR FOR WATER ANALYSIS” (BIOCELL ANALYTICA UPPSALA AB, priority 2023, published 2026):

System: estrogen responsive promoter (four repeats of estrogen response element, ERE) in MCF-7/S0.5 reporter cells
Test: Estrogen-responsive NanoLuc luciferase reporter assay in transfected MCF-7/S0.5 cells, luminescence in culture medium without cell lysis
Type: cell-based, human
Details: MCF-7/S0.5 reporter cells exposed for 24 h to 0.03 to 109 ng/L
Procedure: MCF-7/S0.5 human breast cancer cells (Sigma-Aldrich, catalogue no. SCC100) were cultured in medium supplemented with 1% charcoal-stripped fetal bovine serum (FBS) for 48 hours prior to seeding. The cells were then seeded in medium supplemented with 1% FBS and incubated for 48 hours. […]
The luminescence was measured in the cell culture medium by a Spark® Multimode Microplate Reader (Tecan) from three experimental groups: a) negative control with only cell culture medium but no cells, b) cell culture medium and non-transfected cells, and c) cell cultured medium and cells transfected with the reporter plasmid mentioned above (“reporter cells”).
The MCF-7/S0.5 cells transfected with the reporter plasmid where the expression of NanoLuc® luciferase with an N-terminal secretion signal was under the regulation of an estrogen responsive promoter produced in Example 1 were exposed for 24 h to increasing concentrations of 17β-estradiol, ranging from 0.03 to 109 ng/L. The luminescence was then analyzed in the cell culture medium, without cell lysis.

## C[C@]12CC[C@@H]3c4ccc(O)cc4CC[C@H]3[C@@H]1CC[C@@H]2O [E2, 17β-estradiol]
FIG. 6
  amount of NanoLuc luciferase secreted into the cell culture medium: increasing with increasing concentration of E2
Luminescence of secreted NanoLuc luciferase in cell culture medium
  effect concentration 20% (EC20): 0.00019 ng/mL
